# Legend:
# [1] = test system: T1, syntenin‐Frizzled7 complex (GST-SyntFL / FZD7 peptide); experiment: HTRF assay, syntenin-Frizzled 7 interaction; type: biochemical, human
# T1 construct: residues 1–298 or syntenin full‐length (FL) for HTRF assays; made in house; host or cells: E. coli ER2566
# Method: HTRF assays were performed in white 96Well Small VolumeHiBase Polystyrene Microplates (Greiner) with a total working volume of […], as described previously (Milhas et al., 2016). Briefly, compounds were firstly dispensed into the wells at 400 µM for the primary screen or with serial DMSO dilutions for IC50 measurement assays. Primary screening assays have been performed in monoplicate while IC50 measurements were performed in triplicates. All HTRF reagents were purchased from CisBio Bioassays and reconstituted according to the supplier protocols. The plates were spun for 3 min at 500 × g and then incubated at 4°C for 16 h. The HTRF signals were recorded on a POLAR star Omega plate reader (BMG Labtech) with an excitation filter at 337 nm and fluorescence wavelength measurement at 620 and 665 nm, an integration delay of 60 µs and an integration time of 400 µs. Results were analysed with a two‐wavelength signal ratio: [intensity (665 nm)/intensity (620 nm)] × 10^4. Percentage of inhibition was calculated using the following equation: % inhibition = [(compound signal)–(min signal)]/[(max signal)–(min signal)] × 100, where ‘max signal’ is the signal ratio with the compound vehicle alone (DMSO) and ‘min signal’ the signal ratio without protein B. For IC50 measurements, values were normalized and fitted with Prism (GraphPad software) using the following equation: Y = 100/(1+((X/ IC50)ˆHill slope)).
# The search strategy for PDZ2 syntenin inhibitors was based on the PDZ targeted library developed from Enamine compound collection. The PDZ targeted library was developed to cover virtually all PDZ domains. Consequently, to create the syntenin PDZ2 focused library we used two independent paths: docking of the PDZ targeted library against structures of syntenin PDZ2 available in Protein Data Bank and a random selection from the PDZ targeted library. The docking has produced 21 virtual hits, which were added to 118 randomly selected compounds (10% of the pan PDZ library). The resultant set of 139 compounds, syntenin PDZ library was subjected to experimental validation. The primary screen was performed at 400µM using a previously validated Homogeneous Time Resolved Fluorescence (HTRF) assay (Milhas et al., 2016). HTRF is based on Fluorescence Resonance Energy Transfer (FRET) between two fluorescent reagents. In the present case, Anti‐GST‐Terbium antibody and streptavidin‐bound Dynamic2 were used as donor and acceptor respectively. Interactions between GST PDZ‐fusion proteins and biotinylated peptides containing PDZ binding motifs were challenged with the potential inhibitors. In parallel, control experiments were performed with a biotinylated‐GST to verify that compounds were not interfering with the FRET signal in a non‐specific manner. To identify inhibitors of syntenin PDZ interactions, we tested for the effect of the 139 compounds on syntenin‐SDC2 and syntenin‐Frizzled7 complexes (Figure 1a; Table S1). When the HTRF signal dropped below 0.9, inhibition was considered as effective. […] Noteworthy, these compounds had no effect on other PDZ complexes like GRASP55‐JAM‐B or GRASP55‐JAM‐C and Erbin‐Erbb2 or Erbin‐P0071 (Figure 1c).
# [2] = Chemical solubility and stability in PBS; type: physicochemical; conditions: aqueous buffer; PBS pH 7.4 22°C
compound,measurement,setting,value
CC(C)[C@H](NC(=O)CSc1ccc(Cl)cc1)C(=O)O [Compound C58],GST SyntFL Frizzled 7 (signal ratio),"[1]; 400µM compound, Figure 1c",0.38
same,HTRF ASSAY GST-SyntFL FZD7 (HTRF signal ratio),"[1]; primary screen, 400 µM compound, signal below 0.9 considered effective inhibition, Table S1",0.39
"CC(C)[C@H](NC(=O)CCSc1ccc(Cl)cc1)C(=O)O [SyntOFF, (S)‐2‐(3‐(4‐chlorophenylthio)propanamido)‐3‐methylbutanoic acid]",solubility,[2],> 2300 µg/mL
